EC50 data for 36 compounds are collected here from patent US20220081444A1, “6,7-DIHYDRO-4H-PYRAZOLO[1,5-A]PYRAZINE INDOLE-2-CARBOXAMIDES ACTIVE AGAINST THE HEPATITIS B VIRUS (HBV)” (AiCuris GmbH & Co. KG, priority 2018, published 2022).

As usually defined, the EC50 is the concentration needed to bring the measured effect to its halfway point.

Where a name gives a salt, the structure may show the parent alone.

This assay deals with HBV. The conditions noted are these: Hepatitis B virus, HePAD38, 144 h, read-out: Cell Activity (EC50).

In the case of `O=C(c1cc2ccccc2[nH]1)N1CCn2nc(NC3CCOC3)cc2C1` (stereo not drawn) [Example 1, 5-(1H-indole-2-carbonyl)-N-(oxolan-3-yl)-4H,5H,6H,7H-pyrazolo[1,5-a]pyrazin-2-amine], the concentration giving a half-maximal response (EC50) was 1000 to 10000 nM.

Consider `O=C(c1cc2ccccc2[nH]1)N1CCn2nc(N[C@H]3CC[C@H](O)CC3)cc2C1` [Example 2, (1r,4r)-4-{[5-(1H-indole-2-carbonyl)-4H,5H,6H,7H-pyrazolo[1,5-a]pyrazin-2-yl]amino}cyclohexan-1-ol], for which the EC50 was less than 1000 nM.

Regarding `O=C(c1cc2c(Cl)cccc2[nH]1)N1CCn2nc(NC3CCC(O)CC3)cc2C1` (stereo not drawn) [Example 3, 4-{[5-(4-chloro-1H-indole-2-carbonyl)-4H,5H,6H,7H-pyrazolo[1,5-a]pyrazin-2-yl]amino}cyclohexan-1-ol], the concentration for a half-maximal effect (EC50) was less than 1000 nM.

On to `O=C(Nc1cc2n(n1)CCN(C(=O)c1cc3ccccc3[nH]1)C2)C1CNC1` [Example 4, N-[5-(1H-indole-2-carbonyl)-4H,5H,6H,7H-pyrazolo[1,5-a]pyrazin-2-yl]azetidine-3-carboxamide Hydrochloride], for which the EC50 lay in the range of 1000 to 10000 nM.

Turning to `O=C(c1cc2ccccc2[nH]1)N1CCn2nc(NS(=O)(=O)C3CC3)cc2C1` [Example 5, N-[5-(1H-indole-2-carbonyl)-4H,5H,6H,7H-pyrazolo[1,5-a]pyrazin-2-yl]cyclopropanesulfonamide], the half-maximal effective concentration (EC50) is less than 1000 nM.

Consider `CC(C)(C)OC(=O)N1CC(C(=O)Nc2cc3n(n2)CCN(C(=O)c2cc4ccccc4[nH]2)C3)C1` [Example 7, tert-butyl 3-{[5-(1H-indole-2-carbonyl)-4H,5H,6H,7H-pyrazolo[1,5-a]pyrazin-2-yl]carbamoyl}azetidine-1-carboxylate], for which the EC50 is less than 1000 nM.

`CS(=O)(=O)Nc1cc2n(n1)CCN(C(=O)c1cc3ccccc3[nH]1)C2` [Example 8, N-[5-(1H-indole-2-carbonyl)-4H,5H,6H,7H-pyrazolo[1,5-a]pyrazin-2-yl]methanesulfonamide]: the 50% effective concentration (EC50) is less than 1000 nM.

Turning to `CC1Cn2nc(N)cc2CN1C(=O)c1cc2c(Cl)cccc2[nH]1` (stereo not drawn) [Example 9, 5-(4-chloro-1H-indole-2-carbonyl)-6-methyl-4H,5H,6H,7H-pyrazolo[15-a]pyrazin-2-amine], the EC50 was less than 1000 nM.

Take `CC1Cn2nc(NC(=O)C3CCOC3)cc2CN1C(=O)c1cc2ccccc2[nH]1` (stereo not drawn) [Example 10, N-[5-(1H-indole-2-carbonyl)-6-methyl-4H,5H, 6H,7H-pyrazolo[1,5-a]pyrazin-2-yl]oxolane-3-carboxamide]: the EC50 was less than 1000 nM.

Turning to `CC1Cn2nc(NC(=O)C3CCOC3)cc2CN1C(=O)c1cc2c(Cl)cccc2[nH]1` (stereo not drawn) [Example 11, N-[5-(4-chloro-1H-indole-2-carbonyl)-6-methyl-4H,5H,6H,7H-pyrazolo[1,5-a]pyrazin-2-yl]oxolane-3-carboxamide], the concentration for a half-maximal effect (EC50) is less than 1000 nM.

On to `CC1Cn2nc(NCC3CCOC3)cc2CN1C(=O)c1cc2ccccc2[nH]1` (stereo not drawn) [Example 12, 5-(1H-indole-2-carbonyl)-6-methyl-N-[(oxolan-3-yl)methyl]-4H,5H,6H,7H-pyrazolo[1,5-a]pyrazin-2-amine], for which the EC50 was less than 1000 nM.

In the case of `CC1Cn2nc(NCC3CCOC3)cc2CN1C(=O)c1cc2c(Cl)cccc2[nH]1` (stereo not drawn) [Example 13, 5-(4-chloro-1H-indole-2-carbonyl)-6-methyl-N-[(oxolan-3-yl)methyl]-4H,5H,6H,7H-pyrazolo[1,5-a]pyrazin-2-amine], the EC50 is less than 1000 nM.

`CC(=O)Nc1cc2n(n1)CCN(C(=O)c1cc3ccccc3[nH]1)C2` [Example 14, N-[5-(1H-indole-2-carbonyl)-4H,5H,6H,7H-pyrazolo[1,5-a]pyrazin-2-yl]acetamide]: the EC50 was less than 1000 nM.

Regarding `O=C(c1cc2ccccc2[nH]1)N1CCn2nc(NCC3CCOCC3)cc2C1` [Example 15, 5-(1H-indole-2-carbonyl)-N-[(oxan-4-yl)methyl]-4H,5H,6H,7H-pyrazolo[1,5-a]pyrazin-2-amine], the EC50 was less than 1000 nM.

With `CC1Cn2nc(N)cc2CN1C(=O)c1cc2ccccc2[nH]1` (stereo not drawn) [Example 16, 5-(1H-indole-2-carbonyl)-6-methyl-4H,5H,6H,7H-pyrazolo[1,5-a]pyrazin-2-amine], the 50% effective concentration (EC50) was less than 1000 nM.

With `CCc1cccc2[nH]c(C(=O)N3CCn4nc(NCC5CCOC5)cc4C3)cc12` (stereo not drawn) [Example 17, 5-(4-ethyl-1H-indole-2-carbonyl)-N-[(oxolan-3-yl)methyl]-4H,5H,6H,7H-pyrazolo[1,5-a]pyrazin-2-amine], the EC50 is less than 1000 nM.

Regarding `O=C(Nc1cc2n(n1)CCN(C(=O)c1cc3ccccc3[nH]1)C2)C1CCOCC1` [Example 18, N-[5-(1H-indole-2-carbonyl)-4H,5H,6H,7H-pyrazolo[1,5-a]pyrazin-2-yl]oxane-4-carboxamide], the EC50 was less than 1000 nM.

In the case of `O=C(Nc1cc2n(n1)CCN(C(=O)c1cc3c(Cl)cccc3[nH]1)C2)C1CCOC1` (stereo not drawn) [Example 19, N-[5-(4-chloro-1H-indole-2-carbonyl)-4H,5H,6H,7H-pyrazolo[1,5-a]pyrazin-2-yl]oxolane-3-carboxamide], the EC50 is less than 1000 nM.

With `O=C(Nc1cc2n(n1)CCN(C(=O)c1cc3c(Cl)c(F)ccc3[nH]1)C2)C1CCOC1` (stereo not drawn) [Example 20, N-[5-(4-chloro-5-fluoro-1H-indole-2-carbonyl)-4H,5H,6H,7H-pyrazolo[1,5-a]pyrazin-2-yl]oxolane-3-carboxamide], the half-maximal effective concentration (EC50) is less than 1000 nM.

With `O=C(Nc1cc2n(n1)CCN(C(=O)c1cc3c(Cl)cc(F)cc3[nH]1)C2)C1CCOC1` (stereo not drawn) [Example 21, N-[5-(4-chloro-6-fluoro-1H-indole-2-carbonyl)-4H,5H,6H,7H-pyrazolo[1,5-a]pyrazin-2-yl]oxolane-3-carboxamide], the EC50 was less than 1000 nM.

Take `O=C(Nc1cc2n(n1)CCN(C(=O)c1cc3c(F)cc(F)cc3[nH]1)C2)C1CCOC1` (stereo not drawn) [Example 22, N-[5-(4,6-difluoro-1H-indole-2-carbonyl)-4H,5H,6H,7H-pyrazolo[1,5-a]pyrazin-2-yl]oxolane-3-carboxamide]: the EC50 was less than 1000 nM.

In the case of `CCc1cc(F)cc2[nH]c(C(=O)N3CCn4nc(NC(=O)C5CCOC5)cc4C3)cc12` (stereo not drawn) [Example 23, N-[5-(4-ethyl-6-fluoro-1H-indole-2-carbonyl)-4H,5H,6H,7H-pyrazolo[1,5-a]pyrazin-2-yl]oxolane-3-carboxamide], the EC50 is less than 1000 nM.

Turning to `CCc1cccc2[nH]c(C(=O)N3CCn4nc(NC(=O)C5CCOC5)cc4C3)cc12` (stereo not drawn) [Example 24, N-[5-(4-ethyl-1H-indole-2-carbonyl)-4H,5H,6H,7H-pyrazolo[1,5-a]pyrazin-2-yl]oxolane-3-carboxamide], the concentration giving a half-maximal response (EC50) was less than 1000 nM.

As to `O=C(c1cc2c(Cl)cccc2[nH]1)N1CCn2nc(NCC3CCOC3)cc2C1` (stereo not drawn) [Example 26, 5-(4-chloro-1H-indole-2-carbonyl)-N-[(oxolan-3-yl)methyl]-4H,5H,6H,7H-pyrazolo[1,5-a]pyrazin-2-amine], the EC50 was less than 1000 nM.

In the case of `O=C(c1cc2c(Cl)cc(F)cc2[nH]1)N1CCn2nc(NCC3CCOC3)cc2C1` (stereo not drawn) [Example 27, 5-(4-chloro-6-fluoro-1H-indole-2-carbonyl)-N-[(oxolan-3-yl)methyl]-4H,5H,6H,7H-pyrazolo[1,5-a]pyrazin-2-amine], the EC50 is less than 1000 nM.

In the case of `O=C(c1cc2c(F)cc(F)cc2[nH]1)N1CCn2nc(NCC3CCOC3)cc2C1` (stereo not drawn) [Example 28, 5-(4,6-difluoro-1H-indole-2-carbonyl)-N-[(oxolan-3-yl)methyl]-4H,5H,6H,7H-pyrazolo[1,5-a]pyrazin-2-amine], the concentration for a half-maximal effect (EC50) was less than 1000 nM.

In the case of `O=C(Nc1cc2n(n1)CCN(C(=O)c1cc3ccccc3[nH]1)C2)C1CCOC1` (stereo not drawn) [Example 30, N-[5-(1H-indole-2-carbonyl)-4H,5H,6H,7H-pyrazolo[1,5-a]pyrazin-2-yl]oxolane-3-carboxamide], the EC50 is less than 1000 nM.

With `O=C(c1cc2ccccc2[nH]1)N1CCn2nc(NCC3CCOC3)cc2C1` (stereo not drawn) [Example 31, 5-(1H-indole-2-carbonyl)-N-[(oxolan-3-yl)methyl]-4H,5H,6H,7H-pyrazolo[1,5-a]pyrazin-2-amine], the EC50 is less than 1000 nM.

In the case of `Nc1cc2n(n1)CCN(C(=O)c1cc3c(Cl)cccc3[nH]1)C2` [Example 32, 5-(4-chloro-1H-indole-2-carbonyl)-4H,5H,6H,7H-pyrazolo[1,5-a]pyrazin-2-amine], the concentration giving a half-maximal response (EC50) was less than 1000 nM.

`Nc1cc2n(n1)CCN(C(=O)c1cc3c(F)cc(F)cc3[nH]1)C2` [Example 33, 5-(4,6-difluoro-1H-indole-2-carbonyl)-4H,5H,6H,7H-pyrazolo[1,5-a]pyrazin-2-amine]: the concentration giving a half-maximal response (EC50) is less than 1000 nM.

With `Nc1cc2n(n1)CCN(C(=O)c1cc3ccccc3[nH]1)C2` [Example 34, 5-(1H-indole-2-carbonyl)-4H,5H, 6H,7H-pyrazolo[1,5-a]pyrazin-2-amine], the concentration for a half-maximal effect (EC50) is less than 1000 nM.

Take `O=C(c1cc2c(F)cc(F)cc2[nH]1)N1CCn2nc(NS(=O)(=O)C3CC3)cc2C1` [Example 35, N-[5-(4,6-difluoro-1H-indole-2-carbonyl)-4H,5H,6H,7H-pyrazolo[1,5-a]pyrazin-2-yl]cyclopropanesulfonamide]: the EC50 is less than 1000 nM.

As to `O=C(c1cc2c(Cl)c(F)ccc2[nH]1)N1CCn2nc(NS(=O)(=O)C3CC3)cc2C1` [Example 36, N-[5-(4-chloro-5-fluoro-1H-indole-2-carbonyl)-4H,5H,6H,7H-pyrazolo[1,5-a]pyrazin-2-yl]cyclopropanesulfonamide], the EC50 was less than 1000 nM.

As to `O=C(c1cc2c(Cl)cccc2[nH]1)N1CCn2nc(NS(=O)(=O)C3CC3)cc2C1` [Example 37, N-[5-(4-chloro-1H-indole-2-carbonyl)-4H,5H,6H,7H-pyrazolo[1,5-a]pyrazin-2-yl]cyclopropanesulfonamide], the concentration giving a half-maximal response (EC50) was less than 1000 nM.

Take `O=C(c1cc2c(Cl)cc(F)cc2[nH]1)N1CCn2nc(NS(=O)(=O)C3CC3)cc2C1` [Example 38, N-[5-(4-chloro-6-fluoro-1H-indole-2-carbonyl)-4H,5H,6H,7H-pyrazolo[1,5-a]pyrazin-2-yl]cyclopropanesulfonamide]: the EC50 was less than 1000 nM.

Regarding `CCc1cc(F)cc2[nH]c(C(=O)N3CCn4nc(NS(=O)(=O)C5CC5)cc4C3)cc12` [Example 39, N-[5-(4-ethyl-6-fluoro-1H-indole-2-carbonyl)-4H,5H,6H,7H-pyrazolo[1,5-a]pyrazin-2-yl]cyclopropanesulfonamide], the EC50 is less than 1000 nM.
